Measured values taken from patent publication US10251395B2, “Substituted furano-/thienocycloalkylamino-2-pyrimidine derivatives and use thereof for controlling undesired plant growth” (Bayer CropScience Aktiengesellschaft, priority 2015, dated 2019).

What was measured:
Assay type in all cases: in vivo
[1] = system: Amaranthus retroflexus; test: Post-emergence herbicidal effect; settings: assessed visually after about 3 weeks vs untreated controls
How it was run: (§1)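 Visual % damage vs untreated plants, ~3 wk after spraying (100% = dead, 0% = as control). Post-emergence foliar spray at one-leaf stage; WP/EC in water, 600–800 L/ha + 0.2% wetting agent; sandy loam, greenhouse.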

[2] = system: Lolium multiflorum; test: Post-emergence herbicidal effect; settings: 320 g/ha, assessed visually after about 3 weeks vs untreated controls
How it was run: as §1

[3] = system: Echinochloa crus-galli; test: Post-emergence herbicidal effect; settings: assessed visually after about 3 weeks vs untreated controls
How it was run: as §1

[4] = system: Stellaria media; test: Post-emergence herbicidal effect; settings: 320 g/ha, assessed visually after about 3 weeks vs untreated controls
How it was run: as §1

[5] = system: Matricaria inodora; test: Post-emergence herbicidal effect; settings: 320 g/ha, assessed visually after about 3 weeks vs untreated controls
How it was run: as §1

[6] = system: Abutilon theophrasti; test: Post-emergence herbicidal effect; settings: 320 g/ha, assessed visually after about 3 weeks vs untreated controls
How it was run: as §1

[7] = system: Alopecurus myosuroides; test: Post-emergence herbicidal effect; settings: 320 g/ha, assessed visually after about 3 weeks vs untreated controls
How it was run: as §1

[8] = system: Veronica persica; test: Post-emergence herbicidal effect; settings: assessed visually after about 3 weeks vs untreated controls
How it was run: as §1

[9] = system: Viola tricolor; test: Post-emergence herbicidal effect; settings: assessed visually after about 3 weeks vs untreated controls
How it was run: as §1

[10] = system: Setaria viridis; test: Pre-emergence herbicidal effect; settings: scored visually after 3 weeks
How it was run: (§2)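 Seeds sown in sandy loam in wood-fiber pots and covered with soil; WP or EC formulations applied to the soil surface as aqueous suspension or emulsion at 600 to 800 L/ha water with 0.2% wetting agent. Greenhouse, 3 weeks; damage scored visually versus untreated controls (100% = plants died, 0% = like control).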

[11] = system: Amaranthus retroflexus; test: Pre-emergence herbicidal effect; settings: scored visually after 3 weeks
How it was run: as §2

[12] = system: Polygonum convolvulus; test: Pre-emergence herbicidal effect; settings: scored visually after 3 weeks
How it was run: as §2

[13] = system: Echinochloa crus-galli; test: Pre-emergence herbicidal effect; settings: scored visually after 3 weeks
How it was run: as §2

[14] = system: Stellaria media; test: Pre-emergence herbicidal effect; settings: scored visually after 3 weeks
How it was run: as §2

[15] = system: Matricaria inodora; test: Pre-emergence herbicidal effect; settings: scored visually after 3 weeks
How it was run: as §2

[16] = system: Abutilon theophrasti; test: Pre-emergence herbicidal effect; settings: scored visually after 3 weeks
How it was run: as §2

[17] = system: Veronica persica; test: Pre-emergence herbicidal effect; settings: scored visually after 3 weeks
How it was run: as §2

[18] = system: Viola tricolor; test: Pre-emergence herbicidal effect; settings: scored visually after 3 weeks
How it was run: as §2

[19] = system: Polygonum convolvulus; test: Post-emergence herbicidal effect; settings: 320 g/ha, assessed visually after about 3 weeks vs untreated controls
How it was run: as §1

[20] = system: Ipomoea purpurea; test: Post-emergence herbicidal effect; settings: 320 g/ha, assessed visually after about 3 weeks vs untreated controls
How it was run: as §1

[21] = system: Lolium multiflorum; test: Pre-emergence herbicidal effect; settings: Dosage 320 g/ha, scored visually after 3 weeks
How it was run: as §2

[22] = system: Alopecurus myosuroides; test: Pre-emergence herbicidal effect; settings: Dosage 320 g/ha, scored visually after 3 weeks
How it was run: as §2

Cc1cc2c(s1)CCCC2Nc1ncc2c(n1)CCCC2=O (racemic) [compound 9]
90%: post-emergence efficacy AMARE ([1]; 320 g/ha) | post-emergence efficacy STEME [4] | post-emergence efficacy VERPE ([8]; 320 g/ha) | post-emergence efficacy VIOTR ([9]; 320 g/ha) | VIOTR pre-emergence efficacy (herbicidal activity) ([18]; Dosage 80 g/ha)
100%: post-emergence efficacy ECHCG ([3]; 320 g/ha) | SETVI pre-emergence efficacy (herbicidal activity) ([10]; Dosage 320 g/ha) | AMARE pre-emergence efficacy (herbicidal activity) ([11]; Dosage 80 g/ha) | AMARE pre-emergence efficacy (herbicidal activity) ([11]; Dosage 320 g/ha) | POLCO pre-emergence efficacy (herbicidal activity) ([12]; Dosage 80 g/ha) | POLCO pre-emergence efficacy (herbicidal activity) ([12]; Dosage 320 g/ha) | ECHCG pre-emergence efficacy (herbicidal activity) ([13]; Dosage 80 g/ha) | ECHCG pre-emergence efficacy (herbicidal activity) ([13]; Dosage 320 g/ha) | STEME pre-emergence efficacy (herbicidal activity) ([14]; Dosage 80 g/ha) | STEME pre-emergence efficacy (herbicidal activity) ([14]; Dosage 320 g/ha) | MATIN pre-emergence efficacy (herbicidal activity) ([15]; Dosage 80 g/ha) | MATIN pre-emergence efficacy (herbicidal activity) ([15]; Dosage 320 g/ha) | ABUTH pre-emergence efficacy (herbicidal activity) ([16]; Dosage 80 g/ha) | ABUTH pre-emergence efficacy (herbicidal activity) ([16]; Dosage 320 g/ha) | VERPE pre-emergence efficacy (herbicidal activity) ([17]; Dosage 80 g/ha) | VERPE pre-emergence efficacy (herbicidal activity) ([17]; Dosage 320 g/ha) | VIOTR pre-emergence efficacy (herbicidal activity) ([18]; Dosage 320 g/ha)
80%: post-emergence efficacy AMARE ([1]; 80 g/ha) | post-emergence efficacy LOLMU [2] | post-emergence efficacy ECHCG ([3]; 80 g/ha) | post-emergence efficacy MATIN [5] | post-emergence efficacy ABUTH [6] | post-emergence efficacy ALOMY [7] | post-emergence efficacy VERPE ([8]; 80 g/ha) | post-emergence efficacy VIOTR ([9]; 80 g/ha) | SETVI pre-emergence efficacy (herbicidal activity) ([10]; Dosage 80 g/ha)

C/C(=N\OC(C)C)c1cnc(NC2CCCc3sc(C)cc32)nc1N (racemic) [compound 288]
100%: post-emergence efficacy VERPE ([8]; 320 g/ha) | SETVI pre-emergence efficacy (herbicidal activity) ([10]; Dosage 320 g/ha) | AMARE pre-emergence efficacy (herbicidal activity) ([11]; Dosage 320 g/ha) | POLCO pre-emergence efficacy (herbicidal activity) ([12]; Dosage 320 g/ha) | LOLMU pre-emergence efficacy (herbicidal activity) [21] | ECHCG pre-emergence efficacy (herbicidal activity) ([13]; Dosage 320 g/ha) | STEME pre-emergence efficacy (herbicidal activity) ([14]; Dosage 80 g/ha) | STEME pre-emergence efficacy (herbicidal activity) ([14]; Dosage 320 g/ha) | MATIN pre-emergence efficacy (herbicidal activity) ([15]; Dosage 80 g/ha) | MATIN pre-emergence efficacy (herbicidal activity) ([15]; Dosage 320 g/ha) | VERPE pre-emergence efficacy (herbicidal activity) ([17]; Dosage 80 g/ha) | VERPE pre-emergence efficacy (herbicidal activity) ([17]; Dosage 320 g/ha) | VIOTR pre-emergence efficacy (herbicidal activity) ([18]; Dosage 320 g/ha)
80%: post-emergence efficacy STEME [4] | POLCO pre-emergence efficacy (herbicidal activity) ([12]; Dosage 80 g/ha) | ALOMY pre-emergence efficacy (herbicidal activity) [22]
70%: post-emergence efficacy POLCO [19] | post-emergence efficacy PHBPU [20] | post-emergence efficacy ALOMY [7] | post-emergence efficacy VIOTR ([9]; 80 g/ha) | ABUTH pre-emergence efficacy (herbicidal activity) ([16]; Dosage 320 g/ha) | VIOTR pre-emergence efficacy (herbicidal activity) ([18]; Dosage 80 g/ha)
90%: post-emergence efficacy AMARE ([1]; 320 g/ha) | post-emergence efficacy MATIN [5] | post-emergence efficacy ABUTH [6] | post-emergence efficacy VIOTR ([9]; 320 g/ha)
60%: post-emergence efficacy LOLMU [2]
